Patent publication US20250352629A1, “ADJUVANT FOR BACILLUS CALMETTE-GUERIN CANCER IMMUNOTHERAPY” (The Royal Institution for the Advancement of …, priority 2024, published 2025)
Values joined by “and” are separate entries in the source; they are usually repeats but may differ in a detail not shown here. Equal values may be shown once. “Also recorded” adds a separate entry of the source.

Assays:
MB49 cells [1] = tested on: MB49 cells
[2] = tested on: HSCs (LKS+ cells) and immune cells in BM and bladder; settings: mouse, in vivo
B16-F10 cells = settings: mouse, in vivo
[3] = mouse, in vivo
bladder cancer = settings: human, in vivo; cited from earlier work
MB49 cells [4] = settings: mouse, in vivo
MB49 cells [5] = settings: mouse, in vivo; remark: listed apart in the source

CC(=O)N[C@@H](CS)C(=O)O [NAC, N-Acetyl Cysteine]
effect of ROS scavenger on cytotoxic activity of trained neutrophils (MB49 cells [1]): abolished the cytotoxic activity

Bacillus Calmette-Guérin [BCG]
LKS+ population in BM, frequency and absolute number [2]: significant expansion | frequency and absolute number of monocytes in BM [2]: increased | frequency and absolute number of neutrophils in BM [2]: increased | frequency and absolute number of neutrophils in bladder [2]: increased | frequency and absolute numbers of dendritic cells in BM [2]: increased | frequency and absolute numbers of dendritic cells in bladder [2]: increased | frequency and absolute numbers of monocytes in bladder [2]: increased | frequency and total cell numbers of NK cells in bladder [2]: increased | frequency and total cell numbers of macrophages in bladder [2]: increased | frequency of lymphocytes / adaptive immune cells (CD4+ and CD8+ T cells) in bladder [2]: increased | proportions of long-term HSCs (LT-HSCs) in BM [2]: reduction | proportions of multipotent progenitors (MPPs) in BM [2]: increases | proportions of short-term HSCs (ST-HSCs) in BM [2]: increases | BM-LKS+ population (B16-F10 cells): significant expansion | BCG dissemination to organs [3]: reached the spleen, draining lymph nodes, and BM | BCG elimination in urine [3]: eliminated in the urine | efficacy of BCG treatment in bladder cancer (bladder cancer): 30-50% | intolerance due to adverse effects (bladder cancer): about 20% | patients experiencing relapse (bladder cancer): up to 40% | patients unresponsive to BCG immunotherapy (bladder cancer): up to 50% | increase in survival (MB49 cells [4]): 50% | survival (MB49 cells [4]): 50-70% and 50% | tumor growth / tumoral volume (histopathology, MRI, tumoral weight) (MB49 cells [4]): substantial reduction in tumoral volume; also recorded: reduced tumor growth; also recorded: significant tumor reduction | enhanced survival (MB49 cells [4]; iv): 40-50% | tumor growth (MB49 cells [5]): significantly reduced tumor growth

β-Glucan
frequency and absolute number of neutrophils in bladder [2]: significantly increased | frequency of lymphocytes / adaptive immune cells (CD4+ and CD8+ T cells) in bladder [2]: remained unchanged | frequency and total cell number of neutrophils in BM ([2]; ip): increased | increase in survival (MB49 cells [4]): 50% and 40% | survival (MB49 cells [4]): 40% | survival after neutrophil depletion (MB49 cells [4]): 10% | tumor growth / tumoral volume (histopathology, MRI, tumoral weight) (MB49 cells [4]): suppressing tumoral growth; also recorded: reduced tumor growth; also recorded: significant reduction in tumor volume | enhanced survival compared to PBS-control group (MB49 cells [4]; ip): 45% | tumor growth (MB49 cells [5]): developed tumors
